Measurements reported in patent publication US10165776B2, “Substituted pyrazolylpyrazole derivative and use of same as herbicide” (KYOYU AGRI CO., LTD., priority 2015, dated 2019).

Assays:
Type in all cases: in vivo
Chenopodium album [1] = experiment: Weed foliar treatment test (Test 3, 1.0 to 2.0 leaf stage); settings: foliar spray at 1.0 to 2.0 leaf stage of Digitaria ciliaris, 3 weeks at 25° C.
Method: (§1) Soil was filled into a 1/6000 are pot followed by seeding with Digitaria ciliaris, Chenopodium album and Amaranthus retroflexus, covering with soil, and cultivating in a glass greenhouse at an average atmospheric temperature of 25° C. Wettable powders of Target Compound (I) shown in Table 1 prepared in compliance with the preparation examples were diluted with water to the prescribed amount of chemical and uniformly sprayed onto the weeds using 150 liters of sprayed water per 10 are when Digitaria ciliaris had grown to the 1.0 to 2.0 leaf stage. After treating for 3 weeks in a glass greenhouse at an average atmospheric temperature of 25° C., the herbicidal efficacy thereof was investigated. Evaluation of herbicidal efficacy was carried out in the same manner as the above-mentioned Test Example 1.

Amaranthus retroflexus [2] = experiment: as above; settings: foliar spray at 1.0 to 2.0 leaf stage of Digitaria ciliaris, 3 weeks at 25° C.
Method: as §1

Digitaria ciliaris [3] = experiment: as above; settings: foliar spray at 1.0 to 2.0 leaf stage of Digitaria ciliaris, 3 weeks at 25° C.
Method: as §1

Scirpus juncoides = experiment: Paddy herbicidal activity test; settings: irrigated pot, treated at 3.5 leaf stage of Echinochloa crus-galli, 30 days at 30° C.
Method: (§2) Rice paddy soil was filled into a 1/10000 are pot followed by the addition of suitable amounts of water and chemical fertilizer, kneading, seeding with Echinochloa crus-galli, Monochoria vaginalis and Scirpus juncoides and maintaining in an irrigated state at a water depth of 3 cm. Wettable powders of Target Compound (I) shown in Table 1 prepared in compliance with the preparation examples were diluted with a suitable amount of water, rice plants in the 2.0 leaf stage were transplanted during 3.5 leaf stage of Echinochloa crus-galli, and treated by dropping in chemical in the prescribed amount per 10 are using a pipette. After treating for 30 days in a glass greenhouse at an average atmospheric temperature of 30° C., the herbicidal efficacy thereof was investigated. Evaluation of herbicidal efficacy was carried out by comparing growth inhibition rate (%) with an untreated group, while evaluation of phytotoxicity was carried out by comparing growth inhibition rate (%) with the state of a complete eradication group, and were evaluated at 11 levels indicated below.

Echinochloa crus-galli = experiment: Paddy herbicidal activity test; settings: irrigated pot, treated at 3.5 leaf stage of Echinochloa crus-galli, 30 days at 30° C.
Method: as §2

Monochoria vaginalis = experiment: Paddy herbicidal activity test; settings: irrigated pot, treated at 3.5 leaf stage of Echinochloa crus-galli, 30 days at 30° C.
Method: as §2

Chenopodium album [4] = experiment: Farming soil treatment test; settings: soil surface spray prior to weed growth, 30 days at 30° C.
Method: (§3) Field soil was filled into a 1/6000 are pot followed by seeding with Digitaria ciliaris, Chenopodium album and Amaranthus retroflexus and covering with soil. Wettable powders of compounds of formula (I) shown in Table 1 prepared in compliance with the preparation examples were diluted with water to the prescribed amount of chemical and uniformly sprayed onto each soil surface layer using 100 liters of sprayed water per 10 are prior to weed growth following seeding. After treating for 30 days in a glass greenhouse at an average atmospheric temperature of 30° C., the herbicidal efficacy thereof was investigated. Evaluation of herbicidal efficacy was carried out in the same manner as the above-mentioned Test Example 1.

Amaranthus retroflexus [5] = experiment: Farming soil treatment test; settings: soil surface spray prior to weed growth, 30 days at 30° C.
Method: as §3

Digitaria ciliaris [6] = experiment: Farming soil treatment test; settings: soil surface spray prior to weed growth, 30 days at 30° C.
Method: as §3

Galinsoga parviflora = experiment: Weed foliar treatment test (Test 4, 4.0 to 5.0 leaf stage); settings: 10 g a.i./10 a; foliar spray at 4.0 to 5.0 leaf stage of Digitaria ciliaris (plant height 10 cm to 15 cm); 20 days at 25° C.
Method: (§4) Field soil was filled into a 1/4500 are pot followed by seeding with Digitaria ciliaris and Galinsoga parviflora, covering with soil and cultivating in a glass greenhouse at an average atmospheric temperature of 25° C. Wettable powders of Target Compound (I) shown in Table 1 prepared in compliance with the preparation examples were diluted with water to the prescribed amount of chemical and uniformly sprayed onto the weeds using 100 liters of sprayed water per 10 are when Digitaria ciliaris had grown to the 4.0 to 5.0 leaf stage (plant height: 10 cm to 15 cm). After treating for 20 days in a glass greenhouse at an average atmospheric temperature of 25° C., the herbicidal efficacy thereof was investigated. Evaluation of herbicidal efficacy was carried out in the same manner as the above-mentioned Test Example 1.

Digitaria ciliaris [7] = experiment: as above; settings: 10 g a.i./10 a; foliar spray at 4.0 to 5.0 leaf stage of Digitaria ciliaris (plant height 10 cm to 15 cm); 20 days at 25° C.
Method: as §4

Oryza sativa = experiment: Paddy herbicidal activity test, phytotoxicity to transplanted rice; settings: rice transplanted at 2.0 leaf stage, 30 days at 30° C.
Method: as §2

Structure (SMILES) | herbicidal efficacy, Chenopodium album (Chenopodium album [1]; 5 g a.i./10 a) | herbicidal efficacy, Chenopodium album (Chenopodium album [1]; 10 g a.i./10 a) | herbicidal efficacy, Amaranthus retroflexus (Amaranthus retroflexus [2]; 5 g a.i./10 a) | herbicidal efficacy, Amaranthus retroflexus (Amaranthus retroflexus [2]; 10 g a.i./10 a) | herbicidal efficacy, Digitaria ciliaris (Digitaria ciliaris [3]; 5 g a.i./10 a) | herbicidal efficacy, Digitaria ciliaris (Digitaria ciliaris [3]; 10 g a.i./10 a) | herbicidal efficacy, Scirpus juncoides (Scirpus juncoides; 1 g a.i./10 a) | herbicidal efficacy, Scirpus juncoides (Scirpus juncoides; 5 g a.i./10 a) | herbicidal efficacy, Echinochloa crus-galli (Echinochloa crus-galli; 1 g a.i./10 a) | herbicidal efficacy, Echinochloa crus-galli (Echinochloa crus-galli; 5 g a.i./10 a) | herbicidal efficacy, Monochoria vaginalis (Monochoria vaginalis; 1 g a.i./10 a) | herbicidal efficacy, Monochoria vaginalis (Monochoria vaginalis; 5 g a.i./10 a) | herbicidal efficacy, Chenopodium album (Chenopodium album [4]; 5 g a.i./10 a) | herbicidal efficacy, Chenopodium album (Chenopodium album [4]; 10 g a.i./10 a) | herbicidal efficacy, Amaranthus retroflexus (Amaranthus retroflexus [5]; 5 g a.i./10 a) | herbicidal efficacy, Amaranthus retroflexus (Amaranthus retroflexus [5]; 10 g a.i./10 a) | herbicidal efficacy, Digitaria ciliaris (Digitaria ciliaris [6]; 5 g a.i./10 a) | herbicidal efficacy, Digitaria ciliaris (Digitaria ciliaris [6]; 10 g a.i./10 a) | herbicidal efficacy, Galinsoga parviflora (Galinsoga parviflora) | herbicidal efficacy, Digitaria ciliaris (Digitaria ciliaris [7]) | further results
N#Cc1cnn(-c2nn3c(c2Cl)CCCC3)c1NC(=O)CCc1ccccc1 [Compound 19] | 10 (10: 100%) | 10 (10: 100%) | 10 (10: 100%) | 10 (10: 100%) | 10 (10: 100%) | 10 (10: 100%) | 10 (10: 100%) | 10 (10: 100%) | 9 (9: 90% to less than 100%) | 10 (10: 100%) | 10 (10: 100%) | 10 (10: 100%) | 10 (10: 100%) | 10 (10: 100%) | 10 (10: 100%) | 10 (10: 100%) | 10 (10: 100%) | 10 (10: 100%) | 10 (10: 100%) | 10 (10: 100%) | phytotoxicity, Oryza sativa (Oryza sativa; 1 g a.i./10 a): 0 (0 (exponent): 0% to less than 10% (growth inhibition rate)); phytotoxicity, Oryza sativa (Oryza sativa; 5 g a.i./10 a): 1 (1: 10% to less than 20%)
O=C(Nc1c([N+](=O)[O-])cnn1-c1nn2c(c1Cl)CCCC2)c1ccccc1 [Control agent 2.19, reference compound] | 4 (4: 40% to less than 50%) | 5 (5: 50% to less than 60%) | 4 (4: 40% to less than 50%) | 4 (4: 40% to less than 50%) | 1 (1: 10% to less than 20%) | 2 (2: 20% to less than 30%) | 1 (1: 10% to less than 20%) | 2 (2: 20% to less than 30%) | 3 (3: 30% to less than 40%) | 4 (4: 40% to less than 50%) | 1 (1: 10% to less than 20%) | 1 (1: 10% to less than 20%) | 3 (3: 30% to less than 40%) | 4 (4: 40% to less than 50%) | 1 (1: 10% to less than 20%) | 3 (3: 30% to less than 40%) | 0 (0 (exponent): 0% to less than 10% (growth inhibition rate)) | 2 (2: 20% to less than 30%) | 3 (3: 30% to less than 40%) | 1 (1: 10% to less than 20%) | phytotoxicity, Oryza sativa (Oryza sativa; 1 g a.i./10 a): 1 (1: 10% to less than 20%); phytotoxicity, Oryza sativa (Oryza sativa; 5 g a.i./10 a): 1 (1: 10% to less than 20%)
N#Cc1cnn(-c2nn3c(c2Cl)CCCC3)c1NC(=O)c1ccccc1 [Control agent 4.192, reference compound] | 4 (4: 40% to less than 50%) | 5 (5: 50% to less than 60%) | 3 (3: 30% to less than 40%) | 4 (4: 40% to less than 50%) | 1 (1: 10% to less than 20%) | 2 (2: 20% to less than 30%) | 3 (3: 30% to less than 40%) | 4 (4: 40% to less than 50%) | 4 (4: 40% to less than 50%) | 4 (4: 40% to less than 50%) | 1 (1: 10% to less than 20%) | 2 (2: 20% to less than 30%) | 2 (2: 20% to less than 30%) | 3 (3: 30% to less than 40%) | 0 (0 (exponent): 0% to less than 10% (growth inhibition rate)) | 1 (1: 10% to less than 20%) | 0 (0 (exponent): 0% to less than 10% (growth inhibition rate)) | 2 (2: 20% to less than 30%) | 2 (2: 20% to less than 30%) | 0 (0 (exponent): 0% to less than 10% (growth inhibition rate)) | phytotoxicity, Oryza sativa (Oryza sativa; 1 g a.i./10 a): 1 (1: 10% to less than 20%); phytotoxicity, Oryza sativa (Oryza sativa; 5 g a.i./10 a): 1 (1: 10% to less than 20%)
